Experiment: mn = molality of the nth substance listed, in mol/kg
Conditions: 101.3 kPa, Liquid; for viscosity: Capillary tube (Ostwald / Ubbelohde) method

CCCCCC(=O)[O-].[Na+] [sodium hexanoate] + O
Conditions | mass density, m1 = 0.5 [kg/m3] | mass density, m1 = 1 [kg/m3] | mass density, m1 = 1.5 [kg/m3] | mass density, m1 = 2.177 [kg/m3] | viscosity, m1 = 0.5 [mPa·s] | viscosity, m1 = 1 [mPa·s] | viscosity, m1 = 1.5 [mPa·s] | viscosity, m1 = 2.177 [mPa·s]
298.15 K | 1014.4 | 1029.41 | 1041.88 | 1054.22 | 1.212 | 1.607 | 2.102 | 3.187
308.15 K | 1010.74 | 1024.96 | 1036.7 | 1048.72 | 0.956 | 1.24 | 1.601 | 2.402
